For assay [1], the system named is female subjects 40-65 years of age with mild to moderate skin aging. Nature of the assay: Profilometry of silicone replicas of the crow's feet area in the 16-week clinical study. The assay is classed as in vivo, human. The settings on record: replicas at day 0, week 8, week 16, p<0.05. On the procedure: The effect of the MMP inhibitor on the subject's skin was assessed using the Physician Global Assessment of facial skin appearance and the assessment of the following individual skin appearance parameters on a scale from 0 to 9: fine wrinkling, mottled hyperpigmentation, age spots, tactile roughness, coarse wrinkling, telangiectasia, pore size, sallow tone, and sag. The cosmetic appearance of telangiectasia may be perceived as increased facial redness. Other criteria were also used including profilometry of crow's feet region using silicone replicas.
Silicone replicas of the crow's feet area (“profilometry”) were made at day 0, week 8, and week 16.
For the silicone replicas, the data used in the statistical analyses was the change from baseline. Within-treatment analysis of the skin replica parameters changes from baseline were evaluated using Student's t-test for paired data. Between-treatment analyses were conducted utilizing analysis of covariance with the baseline value as the covariate.

For assay [2] the test system is unchanged. In words: Double-blind, placebo-controlled, randomized 16-week clinical study; dermatologist assessment of individual facial skin appearance parameters (scale 0-9). Format: in vivo, human. The settings on record: 16 weeks. On the procedure:
Photoaging of the skin typically manifests itself as worsening appearance of the skin, including an increased appearance of mottled hyperpigmentation, wrinkles, coarseness of skin, redness, and pores. In this study, the MMP inhibitor,
was evaluated in female subjects 40-65 years of age with mild to moderate skin aging to determine its benefit on the appearance of aging.
The study was designed as a double-blind, placebo-controlled, randomized 16-week clinical study to evaluate the benefit of the MMP inhibitor,
in reducing the appearance of aging. Subjects enrolled in the study were between 40-65 years of age with mild to moderate skin age scores. A randomization table was used to determine which subjects would receive the study cream and which would receive the placebo cream. Subjects were instructed to apply the assigned cream to their face twice a day (once in the morning and once in the evening) after their face was washed and dried. A pea-sized drop of the test article was applied to each quadrant of the face to form a thin layer over the entire face. Follow-up visits were scheduled at 2, 4, 8, 12, and 16 weeks after the cream application was started.
Subjects were instructed to apply the test or placebo cream to the face twice daily (once in the morning and once in the evening) over the entire 16 week study period. […]
The effect of the MMP inhibitor on the subject's skin was assessed using the Physician Global Assessment of facial skin appearance and the assessment of the following individual skin appearance parameters on a scale from 0 to 9: fine wrinkling, mottled hyperpigmentation, age spots, tactile roughness, coarse wrinkling, telangiectasia, pore size, sallow tone, and sag. […]
A Physician Global Assessment of facial skin appearance using the Griffiths scale (0-8) was performed at all study visits. […] An assessment of individual skin parameters including fine wrinkling, mottled hyperpigmentation, age spots, tactile roughness, coarse wrinkling, redness, pore size, sollowness, and sag was scored on a scale from 0-9 at all study visits based on the following table: […]

Structures are written as SMILES. “Also recorded” adds a separate entry of the source.

In the case of `O=C(NCc1ccc(-c2ccccc2)cc1)c1occc(=O)c1O` [MMP inhibitor], in assay [1], the “coarse wrinkle depth and roughness by profilometry of silicone replica, treatment vs placebo group” value was “significant improvement; also recorded: consistent with the improvement of coarse wrinkle scores”. The “appearance of telangiectasia (redness), change from baseline relative to the placebo formulation” value in assay [2] (cream of Example 27 (0.20% MMP inhibitor) applied to the face twice daily, p<0.05 vs placebo) is given as “reduce the appearance of telangiectasia”. The “appearance of pore size, active vs placebo group” value in assay [2] (cream of Example 27 applied to the face twice daily, Proc GLM time x treatment interaction p-value 0.02) was “improved appearance; also recorded: trending toward improvement”. Further, the “appearance of coarse wrinkles, active vs placebo group” value in assay [2] (cream of Example 27 applied to the face twice daily, Proc GLM time x treatment interaction p-value 0.06) is given as “improved appearance of coarse wrinkles; also recorded: trending toward improvement”.
